# Results from publication PMC5218480 (PLoS ONE, 2017).
# Tested on: MV-4-11 cells
# Assay: Gene expression microarray analysis (Affymetrix PrimeView) and GSEA
# Type: cell-based, human
# Set-up: RFU PODN (11730768_x_at) / Fold change /veh PODN (11730768_x_at) / RFU LINC00158 (11744669_a_at) / Fold change /veh LINC00158 (11744669_a_at) / RFU DUSP10 (11751237_a_at) / Fold change /veh DUSP10 (11751237_a_at) / RFU ID3 (11757404_x_at) / Fold change /veh ID3 (11757404_x_at) / RFU PLEKHG5 (11737974_s_at) / Fold change /veh PLEKHG5 (11737974_s_at) / RFU LRRC4B (11730491_at) / Fold change /veh LRRC4B (11730491_at) / RFU GIMAP4 (11747438_a_at) / Fold change /veh GIMAP4 (11747438_a_at) / RFU KRT8 (11758183_x_at) / Fold change /veh KRT8 (11758183_x_at) / RFU CNN1 (11734310_a_at) / Fold change /veh CNN1 (11734310_a_at) / RFU VPS37D (11726825_at) / Fold change /veh VPS37D (11726825_at) / RFU C10orf10 (11716522_x_at) / Fold change /veh C10orf10 (11716522_x_at) / RFU KIR2DL2 /// KIR2DL4 /// KIR2DL5A /// KIR2DL5B /// KIR2DS1 /// KIR2DS2 /// KIR2DS3 /// KIR2DS4 /// KIR3DL3 /// KIR3DL3 /// KIR3DS1 (11738374_at) / Fold change /veh KIR2DL2 /// KIR2DL4 /// KIR2DL5A /// KIR2DL5B /// KIR2DS1 /// KIR2DS2 /// KIR2DS3 /// KIR2DS4 /// KIR3DL3 /// KIR3DL3 /// KIR3DS1 (11738374_at) / RFU C1QL1 (11718748_at) / Fold change /veh C1QL1 (11718748_at) / RFU TMPRSS4 (11747572_a_at) / Fold change /veh TMPRSS4 (11747572_a_at) / RFU HAMP (11756126_x_at) / Fold change /veh HAMP (11756126_x_at) / RFU RNFT2 (11725882_a_at) / Fold change /veh RNFT2 (11725882_a_at) / RFU NR4A2 (11747474_a_at) / Fold change /veh NR4A2 (11747474_a_at) / RFU ABCC12 (11746883_a_at) / Fold change /veh ABCC12 (11746883_a_at) / RFU TMEM136 (11760407_x_at) / Fold change /veh TMEM136 (11760407_x_at) / RFU CLDN22 /// WWC2 (11732394_at) / Fold change /veh CLDN22 /// WWC2 (11732394_at) / RFU HLA-DPB1 (11760878_x_at) / Fold change /veh HLA-DPB1 (11760878_x_at) / RFU SPINT1 (11716480_a_at) / Fold change /veh SPINT1 (11716480_a_at) / RFU GAP43 (11754022_s_at) / Fold change /veh GAP43 (11754022_s_at) / RFU A4GNT (11735810_at) / Fold change /veh A4GNT (11735810_at) / RFU PRB3 (11715151_x_at) / Fold change /veh PRB3 (11715151_x_at) / RFU TUBB4B (11761932_at) / Fold change /veh TUBB4B (11761932_at) / RFU CAPN14 (11732068_a_at) / Fold change /veh CAPN14 (11732068_a_at) / RFU TMCC2 (11721928_a_at) / Fold change /veh TMCC2 (11721928_a_at) / RFU IRGQ (11745062_a_at) / Fold change /veh IRGQ (11745062_a_at) / RFU FAM174B (11720279_a_at) / Fold change /veh FAM174B (11720279_a_at) / RFU TMPRSS4 (11748680_a_at) / Fold change /veh TMPRSS4 (11748680_a_at) / RFU FAM212B (11763350_a_at) / Fold change /veh FAM212B (11763350_a_at) / RFU PLEKHG5 (11743358_a_at) / Fold change /veh PLEKHG5 (11743358_a_at) / RFU ZSCAN30 (11745921_a_at) / Fold change /veh ZSCAN30 (11745921_a_at) / RFU CMKLR1 (11741424_a_at) / Fold change /veh CMKLR1 (11741424_a_at) / RFU LOC101060620 /// MAPK8IP1 (11723275_at) / Fold change /veh LOC101060620 /// MAPK8IP1 (11723275_at) / RFU SPTSSB (11747773_x_at) / Fold change /veh SPTSSB (11747773_x_at) / RFU PRSS12 (11739890_at) / Fold change /veh PRSS12 (11739890_at) / RFU BIN1 (11741810_x_at) / Fold change /veh BIN1 (11741810_x_at) / RFU WNT11 (11732464_a_at) / Fold change /veh WNT11 (11732464_a_at) / RFU C10orf10 (11716521_a_at) / Fold change /veh C10orf10 (11716521_a_at) / RFU C5orf56 (11738089_at) / Fold change /veh C5orf56 (11738089_at) / RFU CYB561 (11721691_x_at) / Fold change /veh CYB561 (11721691_x_at) / RFU ANKRD19P (11752326_a_at) / Fold change /veh ANKRD19P (11752326_a_at) / RFU OR2T12 /// OR2T33 /// OR2T8 (11738714_s_at) / Fold change /veh OR2T12 /// OR2T33 /// OR2T8 (11738714_s_at) / RFU VCAN (11748164_a_at) / Fold change /veh VCAN (11748164_a_at) / RFU JSRP1 (11732532_at) / Fold change /veh JSRP1 (11732532_at) / RFU KRTAP10-11 (11738290_x_at) / Fold change /veh KRTAP10-11 (11738290_x_at) / RFU MYO3A (11730013_a_at) / Fold change /veh MYO3A (11730013_a_at) / RFU EBF3 (11725865_a_at) / Fold change /veh EBF3 (11725865_a_at) / RFU CAMK2N1 (11719241_x_at) / Fold change /veh CAMK2N1 (11719241_x_at) / RFU C5orf56 (11738088_a_at) / Fold change /veh C5orf56 (11738088_a_at) / RFU OLFML3 (11715873_a_at) / Fold change /veh OLFML3 (11715873_a_at) / RFU LOC100653217 /// NTM (11731650_a_at) / Fold change /veh LOC100653217 /// NTM (11731650_a_at) / RFU MAPK11 (11762145_a_at) / Fold change /veh MAPK11 (11762145_a_at) / RFU FIZ1 (11724087_x_at) / Fold change /veh FIZ1 (11724087_x_at) / RFU OASL (11726364_x_at) / Fold change /veh OASL (11726364_x_at) / RFU SOX15 (11748057_x_at) / Fold change /veh SOX15 (11748057_x_at) / RFU CD79A (11719716_a_at) / Fold change /veh CD79A (11719716_a_at) / RFU HIST1H1D (11736915_at) / Fold change /veh HIST1H1D (11736915_at) / RFU CASKIN2 (11723855_a_at) / Fold change /veh CASKIN2 (11723855_a_at) / RFU LOC730098 (11760151_x_at) / Fold change /veh LOC730098 (11760151_x_at) / RFU OR4N2 (11742367_at) / Fold change /veh OR4N2 (11742367_at) / RFU PRRT2 (11749266_a_at) / Fold change /veh PRRT2 (11749266_a_at) / RFU SNX32 (11753110_a_at) / Fold change /veh SNX32 (11753110_a_at) / RFU CDHR5 (11726645_a_at) / Fold change /veh CDHR5 (11726645_a_at) / RFU RCAN1 (11760418_a_at) / Fold change /veh RCAN1 (11760418_a_at) / RFU FAM167A (11723789_a_at) / Fold change /veh FAM167A (11723789_a_at) / RFU FAM26E (11764081_at) / Fold change /veh FAM26E (11764081_at) / RFU ISYNA1 (11749810_s_at) / Fold change /veh ISYNA1 (11749810_s_at) / RFU ACY1 (11761880_at) / Fold change /veh ACY1 (11761880_at) / RFU 11764098_at / Fold change /veh 11764098_at / RFU SAMD14 (11745864_x_at) / Fold change /veh SAMD14 (11745864_x_at) / RFU NPB (11741838_a_at) / Fold change /veh NPB (11741838_a_at) / RFU TMPRSS6 (11731388_a_at) / Fold change /veh TMPRSS6 (11731388_a_at) / RFU KRTAP10-2 (11738614_at) / Fold change /veh KRTAP10-2 (11738614_at) / RFU ARHGAP8 /// PRR5-ARHGAP8 (11727945_x_at) / Fold change /veh ARHGAP8 /// PRR5-ARHGAP8 (11727945_x_at) / RFU KRTAP5-7 /// NADSYN1 (11734609_at) / Fold change /veh KRTAP5-7 /// NADSYN1 (11734609_at) / RFU RASL12 (11751679_a_at) / Fold change /veh RASL12 (11751679_a_at) / RFU CDKN2B (11736163_a_at) / Fold change /veh CDKN2B (11736163_a_at) / RFU PRF1 (11729649_at) / Fold change /veh PRF1 (11729649_at) / RFU, ZNF638 /// ZNF638-IT1 / Fold change vs veh, ZNF638 /// ZNF638-IT1 / RFU, PANK3 / Fold change vs veh, PANK3 / RFU, SH3YL1 / Fold change vs veh, SH3YL1 / RFU, ZEB2 / Fold change vs veh, ZEB2 / RFU, NRIP1 / Fold change vs veh, NRIP1 / RFU, PTTG1IP / Fold change vs veh, PTTG1IP / RFU, CAPN2 / Fold change vs veh, CAPN2 / RFU, MED14 / Fold change vs veh, MED14 / RFU, SNORA58 / Fold change vs veh, SNORA58 / RFU, C1orf63 / Fold change vs veh, C1orf63 / RFU, LRRFIP1 / Fold change vs veh, LRRFIP1 / RFU, NDUFAF7 / Fold change vs veh, NDUFAF7 / RFU, SLC12A2 / Fold change vs veh, SLC12A2 / RFU, IBTK / Fold change vs veh, IBTK / RFU, ESF1 / Fold change vs veh, ESF1 / Fold change vs veh, TMEM50B / RFU, TAOK1 / Fold change vs veh, TAOK1 / RFU, ACBD3 / Fold change vs veh, ACBD3 / RFU, TMA16 / Fold change vs veh, TMA16 / RFU, RWDD3 / Fold change vs veh, RWDD3 / RFU, BCAT1 / Fold change vs veh, BCAT1 / RFU, EDEM3 / Fold change vs veh, EDEM3 / RFU, TMEM33 / Fold change vs veh, TMEM33 / RFU, WDR75 / Fold change vs veh, WDR75 / RFU, AHCTF1 / Fold change vs veh, AHCTF1 / RFU, TFRC / Fold change vs veh, TFRC / RFU, ZDHHC17 / Fold change vs veh, ZDHHC17 / RFU, NOM1 / Fold change vs veh, NOM1 / RFU, ARL8B / Fold change vs veh, ARL8B / RFU, ZBTB11 / Fold change vs veh, ZBTB11 / RFU, TAMM41 / Fold change vs veh, TAMM41 / RFU, KIAA1704 /// LOC100996395 / Fold change vs veh, KIAA1704 /// LOC100996395 / RFU, ING1 / Fold change vs veh, ING1 / RFU, TRMT61B / Fold change vs veh, TRMT61B / RFU, FUBP3 / Fold change vs veh, FUBP3 / RFU, TP53 / Fold change vs veh, TP53 / RFU, TNKS2 / Fold change vs veh, TNKS2 / RFU, ZFP14 / Fold change vs veh, ZFP14 / RFU, ACTR2 / Fold change vs veh, ACTR2 / RFU, PPP3R1 / Fold change vs veh, PPP3R1 / RFU, PIK3R1 / Fold change vs veh, PIK3R1 / RFU, HNRNPA1 / Fold change vs veh, HNRNPA1 / RFU, RNF170 / Fold change vs veh, RNF170 / RFU, ZNF28 / Fold change vs veh, ZNF28 / RFU, RNGTT / Fold change vs veh, RNGTT / RFU, OGT / Fold change vs veh, OGT / RFU, BRD1 / Fold change vs veh, BRD1 / RFU, MARS / Fold change vs veh, MARS / RFU, ZNF655 / Fold change vs veh, ZNF655 / RFU, FAHD1 / Fold change vs veh, FAHD1 / RFU, BDP1 / Fold change vs veh, BDP1 / RFU, LRRCC1 / Fold change vs veh, LRRCC1 / RFU, ARID1A / Fold change vs veh, ARID1A / RFU, ZNF146 / Fold change vs veh, ZNF146 / RFU, ZNF330 / Fold change vs veh, ZNF330 / RFU, GPN3 / Fold change vs veh, GPN3 / RFU, C9orf123 / Fold change vs veh, C9orf123 / RFU, N4BP2L2 / Fold change vs veh, N4BP2L2 / RFU, ARFIP1 / Fold change vs veh, ARFIP1 / RFU, FAM179B / Fold change vs veh, FAM179B / RFU, BCL10 / Fold change vs veh, BCL10 / RFU, UHRF1BP1L / Fold change vs veh, UHRF1BP1L / RFU, BET1 / Fold change vs veh, BET1 / RFU, CNOT2 / Fold change vs veh, CNOT2 / RFU, ZNF268 / Fold change vs veh, ZNF268 / Fold change vs veh, ZNF507 / RFU, DGCR2 / Fold change vs veh, DGCR2 / RFU, WDSUB1 / Fold change vs veh, WDSUB1 / Fold change vs veh, HSP90B1 /// MIR3652 / RFU, ADSS / Fold change vs veh, ADSS / RFU, GK / Fold change vs veh, GK / RFU, ZNF148 / Fold change vs veh, ZNF148 / RFU, TAF9 / Fold change vs veh, TAF9 / RFU, SLC1A5 / Fold change vs veh, SLC1A5 / RFU, SLMO2 / Fold change vs veh, SLMO2 / RFU, ABCC4 / Fold change vs veh, ABCC4 / RFU, LOC101060439 /// RAP1B / Fold change vs veh, LOC101060439 /// RAP1B / RFU, RFX7 / Fold change vs veh, RFX7 / RFU, GTPBP10 / Fold change vs veh, GTPBP10 / RFU, CNEP1R1 / Fold change vs veh, CNEP1R1 / RFU, BIVM-ERCC5 /// ERCC5 / Fold change vs veh, BIVM-ERCC5 /// ERCC5 / RFU, ILF3 / Fold change vs veh, ILF3 / RFU 11762660_at / Fold change /veh 11762660_at / RFU VCAN (11757783_s_at) / Fold change /veh VCAN (11757783_s_at) / RFU DDX43 (11728927_at) / Fold change /veh DDX43 (11728927_at) / RFU KRT8 (11758188_x_at) / Fold change /veh KRT8 (11758188_x_at) / RFU NKD1 (11759106_at) / Fold change /veh NKD1 (11759106_at) / RFU SRD5A1 (11742802_a_at) / Fold change /veh SRD5A1 (11742802_a_at) / RFU TPSAB1 /// TPSB2 (11721975_s_at) / Fold change /veh TPSAB1 /// TPSB2 (11721975_s_at) / RFU GSTM3 (11746129_a_at) / Fold change /veh GSTM3 (11746129_a_at) / RFU IL23R (11737362_x_at) / Fold change /veh IL23R (11737362_x_at) / RFU TMEM51 (11727254_a_at) / Fold change /veh TMEM51 (11727254_a_at) / RFU PIWIL2 (11732686_x_at) / Fold change /veh PIWIL2 (11732686_x_at) / RFU ORM1 (11744905_x_at) / Fold change /veh ORM1 (11744905_x_at) / RFU CCDC152 (11743942_at) / Fold change /veh CCDC152 (11743942_at) / RFU ECM1 (11717891_a_at) / Fold change /veh ECM1 (11717891_a_at) / RFU IL23R (11748794_a_at) / Fold change /veh IL23R (11748794_a_at) / RFU TNFAIP8L3 (11732012_x_at) / Fold change /veh TNFAIP8L3 (11732012_x_at) / RFU MBOAT4 (11741988_at) / Fold change /veh MBOAT4 (11741988_at) / RFU 11764193_at / Fold change /veh 11764193_at / RFU TMEM53 (11763286_at) / Fold change /veh TMEM53 (11763286_at) / RFU MAGEB2 (11727129_at) / Fold change /veh MAGEB2 (11727129_at) / RFU TMEM200A (11744735_a_at) / Fold change /veh TMEM200A (11744735_a_at) / RFU CCDC152 (11751479_a_at) / Fold change /veh CCDC152 (11751479_a_at) / RFU FAM211A (11726209_a_at) / Fold change /veh FAM211A (11726209_a_at) / RFU RGS16 (11746705_a_at) / Fold change /veh RGS16 (11746705_a_at) / RFU VCAN (11755009_s_at) / Fold change /veh VCAN (11755009_s_at) / RFU RHOB (11743442_s_at) / Fold change /veh RHOB (11743442_s_at) / RFU RGS16 (11720943_a_at) / Fold change /veh RGS16 (11720943_a_at) / RFU RGS16 (11720944_at) / Fold change /veh RGS16 (11720944_at) / RFU, VPS4B / Fold change vs veh, VPS4B / RFU, CREB1 / Fold change vs veh, CREB1 / RFU, DNAJC13 / Fold change vs veh, DNAJC13 / RFU, GNAQ / Fold change vs veh, GNAQ / RFU, CDK5R1 / Fold change vs veh, CDK5R1 / RFU, ZRANB3 / Fold change vs veh, ZRANB3 / RFU, CUL4A / Fold change vs veh, CUL4A / RFU, CCNY / Fold change vs veh, CCNY / RFU, UFL1 / Fold change vs veh, UFL1 / RFU, COG3 / Fold change vs veh, COG3 / RFU, DIAPH2 / Fold change vs veh, DIAPH2 / RFU, SKA2 / Fold change vs veh, SKA2 / RFU, AFF3 / Fold change vs veh, AFF3 / RFU, LMF1 / Fold change vs veh, LMF1 / RFU, IPO11 / Fold change vs veh, IPO11 / RFU, DFFB / Fold change vs veh, DFFB / RFU, FOXP1 / Fold change vs veh, FOXP1 / RFU, CARD8 / Fold change vs veh, CARD8 / RFU, STRN3 / Fold change vs veh, STRN3 / RFU, ADK / Fold change vs veh, ADK / RFU, RASSF2 / Fold change vs veh, RASSF2 / RFU, WIPF1 / Fold change vs veh, WIPF1 / RFU, LARP1B / Fold change vs veh, LARP1B / RFU, RASA1 / Fold change vs veh, RASA1 / RFU, RB1 / Fold change vs veh, RB1 / RFU, PPFIA1 / Fold change vs veh, PPFIA1 / RFU, MAT2A / Fold change vs veh, MAT2A / RFU, CCT5 / Fold change vs veh, CCT5 / RFU, WDR92 / Fold change vs veh, WDR92 / RFU, CUX1 / Fold change vs veh, CUX1 / RFU, TTC7A / Fold change vs veh, TTC7A / RFU, TMEM135 / Fold change vs veh, TMEM135 / RFU, DEPTOR / Fold change vs veh, DEPTOR / RFU, CPM / Fold change vs veh, CPM / RFU, DNAJB6 / Fold change vs veh, DNAJB6 / RFU, CACNA2D3 / Fold change vs veh, CACNA2D3 / RFU, DTX4 / Fold change vs veh, DTX4 / RFU, TFCP2 / Fold change vs veh, TFCP2 / RFU, GMCL1 /// GMCL1P1 / Fold change vs veh, GMCL1 /// GMCL1P1 / RFU, AEBP2 / Fold change vs veh, AEBP2 / RFU, SNHG1 /// SNORD22 /// SNORD25 /// SNORD26 /// SNORD27 /// SNORD28 /// SNORD29 /// SNORD31 / Fold change vs veh, SNHG1 /// SNORD22 /// SNORD25 /// SNORD26 /// SNORD27 /// SNORD28 /// SNORD29 /// SNORD31 / Fold change (Aza/veh), C12orf56 (ProbeSet 11735607_a_at) / Fold change (ACY-1035/veh), C12orf56 (ProbeSet 11735607_a_at) / Fold change (Aza/veh), FGFR1OP (ProbeSet 11751329_s_at) / Fold change (ACY-1035/veh), FGFR1OP (ProbeSet 11751329_s_at) / Fold change (Aza/veh), VPS36 (ProbeSet 11739960_a_at) / Fold change (ACY-1035/veh), VPS36 (ProbeSet 11739960_a_at) / RFU SYPL1 (11715823_x_at) / Fold change /veh SYPL1 (11715823_x_at) / RFU IGFBP7 (11715501_s_at) / Fold change /veh IGFBP7 (11715501_s_at) / RFU REEP3 (11722064_at) / Fold change /veh REEP3 (11722064_at) / RFU IGLL1 (11728026_x_at) / Fold change /veh IGLL1 (11728026_x_at): dose or concentration left out as unconfirmed
# Conditions: ProbeSet 11754362_a_at; LIST D
structure (smiles),measurement,value
Nc1ncn([C@@H]2O[C@H](CO)[C@@H](O)[C@H]2O)c(=O)n1 [azacitidine],"RFU, TTC7A",124.13 RFU
